pIC50: −log10 of the molar value. Counter-ions that a name gives are not always drawn. A value given as a limit tells only on which side of the number the result lay.

The experiment deals with T1, human full length HSD11 β 1 (Homo sapiens, UniProt P28845).
T1 construct: transient expression of human full length HSD11 β 1 expression vector; host or cells: CHO cells (transient transfection)
The experiment is described as follows: In Vitro HSD11β1 Inhibition Assay. The format is cell-based. To be noted: CHO cells transiently expressing human HSD11β1; 200 nM cortisone+500 uM NADPH overnight; cortisone to cortisol by LC/MS-MS; read-out: 11βHSD1 (IC50). Put shortly: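 CHO cells transiently transfected with human full-length HSD11β1 were re-seeded after 24 h and, 24 h later, incubated overnight with 200 nM cortisone plus 500 uM NADPH and inhibitor. Cortisone-to-cortisol conversion was measured by LC/MS-MS. IC50 from an 8-point log concentration–inhibition curve.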

T1 sequence (P28845 whole entry): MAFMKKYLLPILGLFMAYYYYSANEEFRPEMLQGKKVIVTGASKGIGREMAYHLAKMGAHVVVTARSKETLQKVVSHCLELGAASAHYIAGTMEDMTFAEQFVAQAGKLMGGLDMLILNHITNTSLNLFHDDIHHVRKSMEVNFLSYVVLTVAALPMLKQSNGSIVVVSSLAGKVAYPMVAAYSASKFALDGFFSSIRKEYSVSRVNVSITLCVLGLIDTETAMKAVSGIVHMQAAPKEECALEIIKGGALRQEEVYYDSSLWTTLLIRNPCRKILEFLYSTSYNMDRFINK

In the case of `COC(=O)C1CCN(C(=O)CC(C)c2c[nH]c3ccccc23)C2CCCCC12` (stereo not drawn) [Example 102, methyl 1-[3-(1H-indol-3-yl)butanoyl]decahydroquinoline-4-carboxylate], the pIC50 is less than 6.60.

With `CC(CC(=O)N1CCC(=O)C2CCCCC21)c1c[nH]c2ccccc12` (stereo not drawn) [Example 103, 1-[3-(1H-indol-3-yl)butanoyl]octahydroquinolin-4(1H)-one], the pIC50 was less than 6.60.

As for `CC(C)C(CC(=O)N1CCC(=O)C2CCCCC21)c1c[nH]c2ccccc12` (stereo not drawn) [Example 104, 1-[3-(1H-indol-3-yl)-4-methylpentanoyl]octahydroquinolin-4(1H)-one], the pIC50 was less than 6.60.

Consider `CC(C)C(CC(=O)N1CCC(C(=O)O)C2CCCCC21)c1c[nH]c2ccccc12` (stereo not drawn) [Example 105, 1-[3-(1H-indol-3-yl)-4-methylpentanoyl]decahydroquinoline-4-carboxylic acid], for which the pIC50 is less than 6.60.

`CC(CC(=O)N1CCC(O)C2CCCCC21)c1c[nH]c2ccccc12` (stereo not drawn) [Example 106, 1-(4-hydroxyoctahydroquinolin-1(2H)-yl)-3-(1H-indol-3-yl)butan-1-one]: the pIC50 is less than 6.60.

In the case of `CC(C)C(CC(=O)N1CCC(C(=O)O)C2CCCCC21)c1c[nH]c2ccccc12` (stereo not drawn) [Example 107, 1-[3-(1H-indol-3-yl)-4-methylpentanoyl]decahydroquinoline-4-carboxylic acid sodium salt], the pIC50 was less than 6.60.

`O=C(CC(O)(c1c[nH]c2ccccc12)C(F)(F)F)N1CCCC2CCCCC21` (stereo not drawn) [Example 108, 4,4,4-trifluoro-3-hydroxy-3-(1H-indol-3-yl)-1-(octahydroquinolin-1(2H)-yl)butan-1-one]: the pIC50 was less than 6.60.

As for `N#CC(CC(=O)N1CCCC2CCCCC21)c1c[nH]c2ccccc12` (stereo not drawn) [Example 109, 2-(1H-indol-3-yl)-4-(octahydroquinolin-1(2H)-yl)-4-oxobutanenitrile], the pIC50 is less than 6.60.

For `CC(C)(c1c[nH]c2ccccc12)C(C#N)C(=O)N1CCCC2CCCCC21` (stereo not drawn) [Example 110, 3-(1H-indol-3-yl)-3-methyl-2-(octahydroquinolin-1(2H)-ylcarbonyl)butanenitrile], the pIC50 is less than 6.60.

On to `CC(C)C(CC(=O)N1CCCC2CCCCC21)c1c[nH]c2cccc(F)c12` (stereo not drawn) [Example 111, 3-(4-fluoro-1H-indol-3-yl)-4-methyl-1-(octahydroquinolin-1(2H)-yl)pentan-1-one], for which the pIC50 is greater than 7.00.

For `CC(C)C(CC(=O)N1CCCC2(C)CCCCC12)c1c[nH]c2cccc(F)c12` (stereo not drawn) [Example 112, 3-(4-fluoro-1H-indol-3-yl)-4-methyl-1-(4a-methyloctahydroquinolin-1(2H)-yl)pentan-1-one], the pIC50 was greater than 7.00.

For the compound `CC(CC(=O)N1CCCC2(C)CCCCC12)c1cn(C)c2ccccc12` (stereo not drawn) [Example 113, 3-(1-methyl-1H-Indol-3-yl)-1-(4a-methyloctahydroquinolin-1(2H)-yl)butan-1-one], the pIC50 is less than 6.60.

`CC(CC(=O)N1CCCC2(C)CCCCC12)c1c[nH]c2cccc(F)c12` (stereo not drawn) [Example 114, 3-(4-fluoro-1H-indol-3-yl)-1-(4a-methyloctahydroquinolin-1(2H)-yl)butan-1-one]: the pIC50 is greater than 7.00.

Consider `CC(CC(=O)N1CCCC2CCCCC21)c1c[nH]c2cccc(F)c12` (stereo not drawn) [Example 121, 3-(4-fluoro-1H-indol-3-yl)-1-(octahydroquinolin-1(2H)-yl)butan-1-one], for which the pIC50 was greater than 7.00.

Regarding `CC(CC(=O)N1CCC[C@H]2CCCC[C@@H]21)c1c[nH]c2cccc(Cl)c12` (stereo partly drawn) [Example 126, 3-(4-chloro-1H-indol-3-yl)-1-[trans-(4a,8a)-octahydroquinolin-1(2H)-yl]butan-1-one], the pIC50 is less than 6.60.

As to `CCOC(=O)C12CCCCC1N(C(=O)CC(C)c1c[nH]c3cccc(Cl)c13)CCC2` (stereo not drawn) [Example 127, ethyl 1-[3-(4-chloro-1H-indol-3-yl)butanoyl]octahydroquinoline-4a(2H)-carboxylate], the pIC50 is less than 6.60.

In the case of `CC(CC(=O)N1CCCC2(c3ccccc3)CCCCC12)c1c[nH]c2cccc(Cl)c12` (stereo not drawn) [Example 128, 3-(4-chloro-1H-indol-3-yl)-1-(4a-phenyloctahydroquinolin-1(2H)-yl)butan-1-one], the pIC50 is less than 6.60.

For `CC(CC(=O)N1CCCC2(C(=O)O)CCCCC12)c1c[nH]c2cccc(Cl)c12` (stereo not drawn) [Example 129, 1-[3-(4-chloro-1H-indol-3-yl)butanoyl]octahydroquinoline-4a(2H)-carboxylic acid], the pIC50 was less than 6.60.

For `CC(CC(=O)N1CCCC2(CO)CCCCC12)c1c[nH]c2cccc(Cl)c12` (stereo not drawn) [Example 130, 3-(4-chloro-1H-indol-3-yl)-1-[4a-(hydroxymethyl)octahydroquinolin-1(2H)-yl]butan-1-one], the pIC50 is less than 6.60.

As to `CC(CC(=O)N1CCCC2(CO)CCCCC12)c1c[nH]c2ccccc12` (stereo not drawn) [Example 131, 1-[4a-(hydroxymethyl)octahydroquinolin-1(2H)-yl]-3-(1H-indol-3-yl)butan-1-one], the pIC50 was less than 6.60.

As to `Cc1cccc2[nH]cc(C(C)CC(=O)N3CCCC4(O)CCCCC34)c12` (stereo not drawn) [Example 132, 1-(4a-hydroxyoctahydroquinolin-1(2H)-yl)-3-(4-methyl-1H-indol-3-yl)butan-1-one], the pIC50 was 6.70 to 6.82.

Regarding `CC(C)C(CC(=O)N1CCOC2CCCCC21)c1c[nH]c2ccccc12` (stereo not drawn) [Example 133, 3-(1H-indol-3-yl)-4-methyl-1-(octahydro-4H-1,4-benzoxazin-4-yl)pentan-1-one], the pIC50 is less than 6.60.

On to `CC(C)C(CC(=O)N1CCOC2CCCCC21)c1cn(C)c2ccccc12` (stereo not drawn) [Example 134, 4-methyl-3-(1-methyl-1H-indol-3-yl)-1-(octahydro-4H-1,4-benzoxazin-4-yl)pentan-1-one], for which the pIC50 is less than 6.60.

With `CC(C)C(CC(=O)N1CCOC2CCCCC21)c1c[nH]c2cccc(F)c12` (stereo not drawn) [Example 135, 3-(4-fluoro-1H-indol-3-yl)-4-methyl-1-(octahydro-4H-1,4-benzoxazin-4-yl)pentan-1-one], the pIC50 was less than 6.60.

For the compound `CC(CC(=O)N1CCOC2CCCCC21)c1c[nH]c2cccc(F)c12` (stereo not drawn) [Example 136, 3-(4-fluoro-1H-indol-3-yl)-1-(octahydro-4H-1,4-benzoxazin-4-yl)butan-1-one], the pIC50 is less than 6.60.

As to `CCOC(=O)C12CCCCC1N(C(=O)CC(C)c1nc3ccccc3s1)CCC2` (stereo not drawn) [Example 141, ethyl 1-[3-(1,3-benzothiazol-2-yl)butanoyl]octahydroquinoline-4a(2H)-carboxylate], the pIC50 was less than 6.60.

For the compound `CC(CC(=O)N1CCC2CCCCC21)c1nc2ccccc2s1` (stereo not drawn) [Example 142, 3-(1,3-benzothiazol-2-yl)-1-(octahydro-1H-indol-1-yl)butan-1-one], the pIC50 was greater than 7.00.

Consider `CC(CC(=O)N1CCCC2CCCCC21)c1c[nH]c2ncccc12` (stereo not drawn) [Example 143, 1-(octahydroquinolin-1(2H)-yl)-3-(1H-pyrrolo[2,3-b]pyridin-3-yl)butan-1-one], for which the pIC50 is greater than 7.00.

In the case of `CC(CC(=O)N1CCCC2(CO)CCCCC12)c1c[nH]c2ncccc12` (stereo not drawn) [Example 146, 1-[4a-(hydroxymethyl)octahydroquinolin-1(2H)-yl]-3-(1H-pyrrolo[2,3-b]pyridin-3-yl)butan-1-one], the pIC50 is less than 6.60.

With `CC(CC(=O)N1CCCC2(CO)CCCCC12)c1c[nH]c2nccc(Cl)c12` (stereo not drawn) [Example 147, 3-(4-chloro-1H-pyrrolo[2,3-b]pyridin-3-yl)-1-[4a-(hydroxymethyl)octahydroquinolin-1(2H)-yl]butan-1-one], the pIC50 is less than 6.60.

Take `CC(CC(=O)N1CCCC2(O)CCCCC12)c1c[nH]c2ncccc12` (stereo not drawn) [Example 148, 1-(4a-hydroxyoctahydroquinolin-1(2H)-yl)-3-(1H-pyrrolo[2,3-b]pyridin-3-yl)butan-1-one]: the pIC50 is less than 6.60.

For the compound `Cc1cccc2[nH]cc(C(C)CC(=O)N3CCCC4(C#N)CCCCC34)c12` (stereo not drawn) [Example 149, 1-[3-(4-methyl-1H-indol-3-yl)butanoyl]octahydroquinoline-4a(2H)-carbonitrile], the pIC50 is less than 6.60.

As for `O=C(O)C1CCN(C(=O)CC(c2ccccc2)c2nc3ccccc3s2)C2CCCCC12` (stereo not drawn) [Example 152, 1-[3-(1,3-benzothiazol-2-yl)-3-phenylpropanoyl]decahydroquinoline-4-carboxylic acid], the pIC50 is less than 6.60.

With `COC12CCCCC1N(C(=O)CC(C)c1c[nH]c3ncccc13)CCC2` (stereo not drawn) [Example 153, 1-(4a-methoxyoctahydroquinolin-1(2H)-yl)-3-(1H-pyrrolo[2,3-b]pyridin-3-yl)butan-1-one], the pIC50 is 6.70 to 6.82.

With `CC(CC(=O)N1CCC(C(=O)O)C2CCCCC21)c1nc2ccccc2s1` (stereo not drawn) [Example 154, 1-[3-(1,3-benzothiazol-2-yl)butanoyl]decahydroquinoline-4-carboxylic acid], the pIC50 is less than 6.60.

Turning to `O=C(O)C1CCN(C(=O)CC(c2ccccc2)c2c[nH]c3cccc(Cl)c23)C2CCCCC12` (stereo not drawn) [Example 155, 1-[3-(4-chloro-1H-indol-3-yl)-3-phenylpropanoyl]decahydroquinoline-4-carboxylic acid], the pIC50 is less than 6.60.

`O=C(O)C1CCN(C(=O)CC(c2cccs2)c2c[nH]c3cccc(F)c23)C2CCCCC12` (stereo not drawn) [Example 156, 1-[3-(4-fluoro-1H-indol-3-yl)-3-(thiophen-2-yl)propanoyl]decahydroquinoline-4-carboxylic acid]: the pIC50 was greater than 7.00.

With `O=C(O)C1CCN(C(=O)CC(c2ccc(F)cc2)c2c[nH]c3cccc(F)c23)C2CCCCC12` (stereo not drawn) [Example 157, 1-[3-(4-fluoro-1H-indol-3-yl)-3-(4-fluorophenyl)propanoyl]decahydroquinoline-4-carboxylic acid], the pIC50 is greater than 7.00.

For `CC(CC(=O)N1CCC(C(=O)O)C2CCCCC21)c1c[nH]c2cccc(Cl)c12` (stereo not drawn) [Example 158, 1-[3-(4-chloro-1H-indol-3-yl)butanoyl]decahydroquinoline-4-carboxylic acid], the pIC50 was less than 6.60.

The record behind these values is patent US9453014B2, “Cyclic amide derivatives as inhibitors of 11-β-hydroxysteroid dehydrogenase and uses thereof” (CONNEXIOS LIFE SCIENCES PVT. LTD., priority 2011, dated 2016).
